Measured values: patent publication US8614193
Where “and” joins values, the source holds several entries; their conditions need not be identical. Equal entries are not always repeated. Where two headings read alike, the source gives them in different places.

[1] = disulfide bond, 15-membered ring, I2 (10 eq), CH2Cl2/MeOH 9:1, 0.43 mM

Work on `CC(C)[C@@H]1NC(=O)[C@@H](CSC(c2ccccc2)(c2ccccc2)c2ccccc2)NC(=O)C2(CC2)NC(=O)C[C@@H](/C=C/CCSC(c2ccccc2)(c2ccccc2)c2ccccc2)OC(=O)CNC1=O` yielded a ring closure, isolated yield (from (3S,4E)-3-hydroxy-7-(tritylthio)hept-4-enoyl-Ac3c-dCys(Trt)-Val-Gly-OH?, ester bond, 16-membered ring, MNBA/DMAP, CH2Cl2/THF, 0.77 mM, 2 steps) of 50%.

With “(E)-(1S,10S)-7-Isopropyl-21,21-cyclopropyl-2-oxa-12,13-dithia-5,8,20,23-tetraaza-bicyclo[8.7.6]tricos-16-ene-3,6,9,19,22-pentaone” the ring closure, isolated yield (disulfide bond, 15-membered ring, I2, CH2Cl2/MeOH 9:1) was 76%.

In the case of “3-((E)-(1S,9S,20R)-5-Hydroxy-6,6-cyclopropyl-3,8,18,21-tetraoxo-2-oxa-11,12-dithia-7,19,22-triaza-bicyclo[7.7.6]docos-15-en-20-yl)-propionic acid tert-butyl ester”, the ring closure, isolated yield (disulfide bond, 15-membered ring, I2, CH2Cl2/MeOH 9:1, 0.39 mM) is reported as 32% and 26%.

In the case of `O=C1C[C@@H](/C=C/CCSC(c2ccccc2)(c2ccccc2)c2ccccc2)OC(=O)CNC(=O)C2(CC2)NC(=O)[C@@H](CSC(c2ccccc2)(c2ccccc2)c2ccccc2)NC(=O)CN1`, the ring closure, isolated yield (from (3S,4E)-3-hydroxy-7-(tritylthio)hept-4-enoyl-Gly-dCys(Trt)-Ac3c-Gly-OH, ester bond, 16-membered ring, MNBA/DMAP, CH2Cl2, 0.85 mM) is reported as 45%.

Work on `O=C1C[C@@H](/C=C/CCSC(c2ccccc2)(c2ccccc2)c2ccccc2)OC(=O)CNC(=O)C2(CC2)NC(=O)[C@@H](CSC(c2ccccc2)(c2ccccc2)c2ccccc2)NC(=O)[C@@H](Cc2cccc(Cl)c2)N1` yielded a ring closure, isolated yield (from (3S,4E)-3-hydroxy-7-(tritylthio)hept-4-enoyl-dPhe(3-Cl)-dCys(Trt)-Acc(1-aminocyclopropanecarbonyl)-Gly-OH, ester bond, 16-membered ring, MNBA/DMAP, CH2Cl2, 1.06 mM) of 40%.

In the case of `O=C1C[C@@H](/C=C/CCSC(c2ccccc2)(c2ccccc2)c2ccccc2)OC(=O)CNC(=O)C2(CC2)NC(=O)[C@@H](CSC(c2ccccc2)(c2ccccc2)c2ccccc2)NC(=O)[C@@H](Cc2cccnc2)N1`, the ring closure, isolated yield (from (3S,4E)-3-hydroxy-7-(tritylthio)hept-4-enoyl-d3Pal-dCys(Trt)-Acc(1-aminocyclopropanecarbonyl)-Gly-OH?, ester bond, 16-membered ring, MNBA/DMAP, CH2Cl2/THF, 0.67 mM, 2 steps) is reported as 96%.

In the case of `CC(C)(C)OC(=O)CC[C@H]1NC(=O)CC(/C=C/CCSC(c2ccccc2)(c2ccccc2)c2ccccc2)OC(=O)CNC(=O)C2(CCC2)NC(=O)C(CSC(c2ccccc2)(c2ccccc2)c2ccccc2)NC1=O` (stereo in doubt), the ring closure, isolated yield (from (3S,4E)-3-hydroxy-7-(tritylthio)hept-4-enoyl-dGlu(tBu)-dCys(Trt)-Ac4c-Gly-OH, ester bond, 16-membered ring, MNBA/DMAP, CH2Cl2/THF, 1.13 mM, 2 steps) is reported as 51%.

For “(E)-(1S,10S)-7,7-Cyclopropyl-2-oxa-12,13-dithia-5,8,20,23-tetraaza-bicyclo[8.7.6]tricos-16-ene-3,6,9,19,22-pentaone”, the ring closure, isolated yield (disulfide bond, 15-membered ring, I2, CH2Cl2/MeOH 9:1, 0.2 mM) was 53%.

In the case of “3-((E)-(1S,10S,21R)-7,7-Dimethyl-3,6,9,19,22-pentaoxo-2-oxa-12,13-dithia-5,8,20,23-tetraaza-bicyclo[8.7.6]tricos-16-en-21-yl)-propionic acid tert-butyl ester”, the ring closure, isolated yield (disulfide bond, 15-membered ring, I2, CH2Cl2/MeOH 9:1, 0.35 mM, 25.0 °C) is reported as 81%.

For `O=C1C[C@@H](/C=C/CCSC(c2ccccc2)(c2ccccc2)c2ccccc2)OC(=O)CNC(=O)C2(CC2)NC(=O)[C@@H](CSC(c2ccccc2)(c2ccccc2)c2ccccc2)NC(=O)[C@@H](Cc2ccccc2)N1`, the ring closure, isolated yield (from (3S,4E)-3-hydroxy-7-(tritylthio)hept-4-enoyl-dPhe-dCys(Trt)-Acc(1-aminocyclopropanecarbonyl)-Gly-OH, ester bond, 16-membered ring, MNBA/DMAP, CH2Cl2/THF, 0.83 mM, 2 steps) was 58%.

In the case of “3-((E)-(1S,10S,21R)-7,7-Cyclopropyl-3,6,9,19,22-pentaoxo-2-oxa-12,13-dithia-5,8,20,23-tetraaza-bicyclo[8.7.6]tricos-16-en-21-yl)-propionic acid tert-butyl ester”, the ring closure, isolated yield (disulfide bond, 15-membered ring, I2, CH2Cl2/MeOH 9:1, 0.4 mM, 25.0 °C) is reported as 65%.

`O=C1CC(/C=C/CCSC(c2ccccc2)(c2ccccc2)c2ccccc2)OC(=O)CNC(=O)C2(CC2)NC(=O)[C@@H](CSC(c2ccccc2)(c2ccccc2)c2ccccc2)NC(=O)[C@@H](Cc2ccncc2)N1` (stereo in doubt) gave a ring closure, isolated yield (from (3S,4E)-3-hydroxy-7-(tritylthio)hept-4-enoyl-d4Pal-dCys(Trt)-Acc(1-aminocyclopropanecarbonyl)-Gly-OH, ester bond, 16-membered ring, MNBA/DMAP, CH2Cl2/THF, 0.97 mM, 2 steps) of 54%.

Work on `CC(C)[C@H]1NC(=O)[C@@H](CSC(c2ccccc2)(c2ccccc2)c2ccccc2)NC(=O)C(C)(C)NC(=O)CC(/C=C/CCSC(c2ccccc2)(c2ccccc2)c2ccccc2)OC(=O)CNC1=O` (stereo in doubt) yielded a ring closure, isolated yield (from (3S,4E)-3-hydroxy-7-(tritylthio)hept-4-enoyl-Aib-dCys(Trt)-dVal-Gly-OH, ester bond, 16-membered ring, MNBA/DMAP, CH2Cl2/THF, 1.0 mM, 2 steps) of 47%.

Compound `CC(C)(C)OC(=O)CC[C@H]1NC(=O)C[C@@H](/C=C/CCSC(c2ccccc2)(c2ccccc2)c2ccccc2)OC(=O)CNC(=O)C2(CC2)NC(=O)[C@@H](CSC(c2ccccc2)(c2ccccc2)c2ccccc2)NC1=O` has a ring closure, isolated yield (from (E)-(S)-3-hydroxy-7-tritylsulfanyl-hept-4-enoyl-dGlu(OtBu)-dCys(Trt)-Acc-Gly-OH, ester bond, 16-membered ring, MNBA/DMAP, CH2Cl2/THF, 0.85 mM, 25.0 °C, 2 steps) of 29%.

Work on “(E)-(1S,10S,21R)-7-cyclopropyl-21-pyridin-4-ylmethyl-2-oxa-12,13-dithia-5,8,20,23-tetraaza-bicyclo[8.7.6]tricos-16-ene-3,6,9,19,22-pentaone” yielded a ring closure, isolated yield [1] of 2%.

Compound “(E)-(1S,10S,21R)-21-Benzyl-7,7-cyclopropyl-2-oxa-12,13-dithia-5,8,20,23-tetraaza-bicyclo[8.7.6]tricos-16-ene-3,6,9,19,22-pentaone” has a ring closure, isolated yield [1] of 81%.

With “3-((E)-(1S,10S,21R)-7-cyclobutyl-3,6,9,19,22-pentaoxo-2-oxa-12,13-dithia-5,8,20,23-tetraaza-bicyclo[8.7.6]tricos-16-en-21-yl)-propionic acid tert-butyl ester” the ring closure, isolated yield (disulfide bond, 15-membered ring, I2, CH2Cl2/MeOH 9:1, 0.46 mM) was 93%.

In the case of `CC(C)(C)OC(=O)CC[C@H]1NC(=O)C[C@@H](/C=C/CCSC(c2ccccc2)(c2ccccc2)c2ccccc2)OC(=O)CC(O)C2(CC2)NC(=O)[C@@H](CSC(c2ccccc2)(c2ccccc2)c2ccccc2)NC1=O` (stereo partly drawn), the ring closure, isolated yield (from (R)-4-{(S)-1-[1-(2-Carboxy-1-hydroxy-ethyl)-cyclopropylcarbamoyl]-2-tritylsulfanyl-ethylcarbamoyl}-4-((E)-(S)-3-hydroxy-7-tritylsulfanyl-hept-4-enoylamino)-butyric acid tert-butyl ester, ester bond, 15-membered ring, MNBA/DMAP, CH2Cl2, 1.07 mM) is reported as 56%.

“(E)-(1S,10S,21R)-21-(3-Chloro-benzyl)-7,7-cyclopropyl-2-oxa-12,13-dithia-5,8,20,23-tetraaza-bicyclo[8.7.6]tricos-16-ene-3,6,9,19,22-pentaone” gave a ring closure, isolated yield (disulfide bond, 15-membered ring, I2, CH2Cl2/MeOH 9:1, 0.19 mM) of 32%.

For `CC(C)(C)OC(=O)CC[C@H]1NC(=O)C[C@@H](/C=C/CCSC(c2ccccc2)(c2ccccc2)c2ccccc2)OC(=O)CNC(=O)C(C)(C)NC(=O)[C@@H](CSC(c2ccccc2)(c2ccccc2)c2ccccc2)NC1=O`, the ring closure, isolated yield (from (E)-(S)-3-hydroxy-7-tritylsulfanyl-hept-4-enoyl-dGlu(OtBu)-dCys(Trt)-Aib-Gly-OH, ester bond, 16-membered ring, MNBA/DMAP, CH2Cl2/THF, 0.94 mM, 2 steps) was 63%.

In the case of “(E)-(1S,10S,21R)-7,7-Cyclopropyl-21-pyridin-3-ylmethyl-2-oxa-12,13-dithia-5,8,20,23-tetraaza-bicyclo[8.7.6]tricos-16-ene-3,6,9,19,22-pentaone”, the ring closure, isolated yield (disulfide bond, 15-membered ring, I2 (10 eq), CH2Cl2/MeOH 9:1, 0.35 mM) is reported as 24%.
